In patent publication US20080287429A1 (Z & Z Medical Holdings, Inc., priority 2007, published 2008):
Where two headings read alike, the source gives them in different places.

Columns and labels:
[1] = system: atherosclerotic plaque in pig artery; assay: Solubilization of atherosclerotic plaque material in ex vivo samples of pig artery; conditions: 50 mg/mL DCA bath, after 5 hours
Protocol: Early in the treatment, on removal of the sample from the bath a clear, viscous, column of fluid extended from the sample. This column of fluid continued to be apparent when samples were evaluated up to about 4 or 5 hours, after which the fluid column was no longer noted. Without wishing to be held to any one theory of operation, it was concluded that the clear fluid comprised components of the plaque. […] The sample was continuously exposed for a period of 8 days.

[2] = fed to C57BL/6 LDL r-KO knockout mice, relative to mice not provided HDCA; cited from earlier work
[3] = wild type mice, same amount of dietary HDCA; cited from earlier work
[4] = system: sandwich culture rat hepatocyte; conditions: cited from earlier work
[5] = system: sandwich culture human hepatocytes; conditions: cited from earlier work
[6] = system: sandwich culture rat hepatocytes; conditions: cited from earlier work
[7] = in vivo; cited from earlier work
[8] = system: hepatocellular uptake of bile acids; conditions: cited from earlier work
[9] = 40 mg/day rosuvastatin, cited from earlier work
[10] = system: bile acid uptake by hepatocyte receptors; conditions: 1 mmol/kg, cited from earlier work

C[C@H](CCC(=O)O)[C@H]1CC[C@H]2[C@@H]3CC[C@@H]4C[C@H](O)CC[C@]4(C)[C@H]3C[C@H](O)[C@]12C [DCA, deoxycholic acid]
plaque volume decreased (macroscopic assessment) [1]: about 70%

C[C@H](CCC(=O)O)[C@H]1CC[C@H]2[C@@H]3C[C@H](O)[C@@H]4C[C@H](O)CC[C@]4(C)[C@H]3CC[C@]12C [HDCA, hyodeoxycholic acid]
rate of formation of atherosclerotic plaque [2]: reduced rate of formation | plasma levels [3]: up to 50 μM

COc1ccccc1Oc1c(NS(=O)(=O)c2ccc(C(C)(C)C)cc2)nc(-c2ncccn2)nc1OCCO [bosentan]
hepatic uptake and excretion of bile acids from the bile pole of the hepatocyte ([4]; 100 μM): inhibit

O=C1Nc2ccc(Cl)cc2[C@@](C#CC2CC2)(C(F)(F)F)O1 [efavirenz]
bile acid transport ([5]; 32 μM): inhibit | bile acid transport ([6]; 32 μM): inhibit

CC(=O)N1CCN(c2ccc(OCC3COC(Cn4ccnc4)(c4ccc(Cl)cc4Cl)O3)cc2)CC1 (stereo not drawn) [ketoconazole]
side effect [7]: hepatotoxicity | serum levels of cholic acid, taurocholic acid, and chenodeoxycholic acid ([8]; 25 mg/kg): increase | serum levels of cholic, taurocholic, chenodeoxycholic, glycocholic, glycochenodeoxycholic, glycodeoxycholic, deoxycholic and taurochenodeoxycholic acid ([8]; 50 mg/kg): increase | hepatocellular uptake of bile acids ([8]; dose related, relatively specific): strongly inhibiting

CC(C)c1nc(CN(C)C(=O)N[C@H](C(=O)N[C@@H](Cc2ccccc2)C[C@H](O)[C@H](Cc2ccccc2)NC(=O)OCc2cncs2)C(C)C)cs1 [ritonavir]
bile acid transport ([5]; 28 μM): inhibit | bile acid transport ([6]; 28 μM): inhibit

CC(C)c1nc(N(C)S(C)(=O)=O)nc(-c2ccc(F)cc2)c1/C=C/[C@@H](O)C[C@@H](O)CC(=O)O [rosuvastatin]
reduction with respect to normalized total atheroma volume ([9]; after 2 years, SD=11.1): 6.7% | plaque volume reduced, most diseased segments of vessels examined ([9]; after 2 years, SD=13.7): 8.5% | modulating LDL, HDL, and triglyceride levels [9]: particularly effective

ClC=C(Cl)Cl [trichloroethylene]
serum bile acids [10]: serum accumulation of bile acids | bile acid uptake by hepatocyte receptors ([10]; rather than actual cell damage): reversible physiological interference

Cc1c(C)c2c(c(C)c1O)CCC(C)(COc1ccc(CC3SC(=O)NC3=O)cc1)O2 (stereo not drawn) [troglitazone]
hepatic uptake and excretion of bile acids from the bile pole of the hepatocyte ([4]; 10 μM): inhibit
